Experimental findings from patent US20250136559A1, “SMO MODULATOR COMPOUNDS” (OMASS THERAPEUTICS LIMITED, priority 2022, published 2025) are described below.

SMILES strings stand for the structures.

Holding throughout (type): cell-based
One experiment concerns the target T1, mouse SMO^D473H (Mus musculus, UniProt P56726, D477H).
T1 construct: expressed in transfected cells
Nature of the experiment: Mouse assay: Gli1 qPCR in MEF cells stably expressing mouse SMO D473H. As to conditions: mSHh-treated, 24 hours; for IC50: Gli1 inhibition by qPCR, read-out: Mouse D473H pIC50 (converted); for Mouse D473H % Inh: percentage Gli1 inhibition. The method, then:
(§1) Cell culture. All materials were purchased from Sigma-Aldrich, unless otherwise stated.
(§2) Compound treatment. […] After 1 hour incubation, cells were treated with assay medium containing mSHh prepared at 2.5× of final assay concentrations specified in the text and incubated for a further 24 hours at 37′C in a humidified 95% air/5% CO2 atmosphere prior to qPCR analysis.
(§3) Cell lysis and one-step qPCR. The Cells-to-CT™ 1-Step TaqMan® Kit was used in conjunction with TaqMan primer-probe assays for the detection of Gli1 (FAM, Mm00494654_m1) and Gusb (VIC, Mm01197698_m1) genes (all purchased from Life Technologies). Following 24 hours cell treatment, spent medium was removed and cells were washed with PBS before the application of lysis and stop solution as per manufacturer's instructions. The qPCR reactions were run in a 384-well PCR plate using master mix prepared according to manufacturer's instructions and cell lysate samples from treatment wells. Real-time PCR amplification was detected using the Bio-Rad CFX384 Touch PCR system. Four experimental replicates (two cell replicates and two qPCR replicates) were performed for each compound concentration tested. Real-time data were analysed using the CFX Maestro software (Bio-Rad) and obtained expression values were converted to percentage Gli1 inhibition by normalising to the average Gli1 expression of mSHh-treated control samples.
In general terms: Real-time PCR tracks product formation cycle by cycle.

The next experiment has as its target T2, mouse SMO^W535L (Mus musculus, UniProt P56726, W539L).
T2 construct: expressed in transfected cells
Put plainly: Mouse assay: Gli1 qPCR in MEF cells stably expressing mouse SMO W535L. The following applies: mSHh-treated, 24 hours; for IC50: Gli1 inhibition by qPCR, read-out: Mouse W535L pIC50 (converted); for Mouse W535L % Inh: percentage Gli1 inhibition. The method, then:
as §1, §2, §3

A further experiment deals with T3, mouse SMO^WT (Mus musculus, UniProt P56726).
T3 construct: expressed in transfected cells
Nature of the experiment: Mouse assay: Gli1 qPCR in MEF cells stably expressing mouse SMO WT. The following applies: mSHh-treated, 24 hours; for IC50: Gli1 inhibition by qPCR, read-out: Mouse WT pIC50 (converted); for Mouse WT % Inh: percentage Gli1 inhibition. On the procedure: as §1, §2, §3

T3 sequence (P56726 33-793): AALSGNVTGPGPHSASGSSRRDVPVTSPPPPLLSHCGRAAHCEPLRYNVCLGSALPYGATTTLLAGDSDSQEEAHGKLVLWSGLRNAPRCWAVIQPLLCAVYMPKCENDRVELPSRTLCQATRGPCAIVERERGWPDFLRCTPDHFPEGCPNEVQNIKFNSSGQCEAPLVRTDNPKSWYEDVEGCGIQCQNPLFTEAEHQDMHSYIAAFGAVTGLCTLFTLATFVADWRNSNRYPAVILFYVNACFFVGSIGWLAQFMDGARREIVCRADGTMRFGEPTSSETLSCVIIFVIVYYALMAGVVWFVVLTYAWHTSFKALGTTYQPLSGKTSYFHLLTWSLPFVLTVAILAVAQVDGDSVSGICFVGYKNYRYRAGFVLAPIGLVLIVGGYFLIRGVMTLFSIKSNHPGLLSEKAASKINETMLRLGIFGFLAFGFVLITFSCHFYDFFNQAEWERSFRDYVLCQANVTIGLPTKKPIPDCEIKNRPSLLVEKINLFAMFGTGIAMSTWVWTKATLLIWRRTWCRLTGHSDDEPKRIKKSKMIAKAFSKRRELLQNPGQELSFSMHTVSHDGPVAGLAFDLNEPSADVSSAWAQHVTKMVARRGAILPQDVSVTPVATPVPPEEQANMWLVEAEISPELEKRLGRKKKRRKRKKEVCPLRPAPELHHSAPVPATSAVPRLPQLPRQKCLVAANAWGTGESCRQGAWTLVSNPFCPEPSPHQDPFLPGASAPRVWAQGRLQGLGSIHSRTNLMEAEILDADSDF
T2 sequence (P56726 33-793 W539L): as the sequence (P56726 33-793) above, with W507L counted along it
T1 sequence (P56726 33-793 D477H): as the sequence (P56726 33-793) above, with D445H counted along it

As for `O=C(Nc1ccc(-c2nc(C3CC3)n[nH]2)cc1)c1cccc(CN2CCSCC2)c1` [Example 1-1, N-[4-(3-cyclopropyl-1H-1,2,4-triazol-5-yl)phenyl]-3-(thiomorpholin-4-ylmethyl)benzamide], on mouse SMO^D473H, the IC50 is 200 nM and the “Mouse D473H % Inh” value is given as 99.3%. Also, at mouse SMO^W535L, the IC50 is 251 nM and the “Mouse W535L % Inh” value is on record as 66.8%. Further, at mouse SMO^WT, the IC50 is 20 nM and the “Mouse WT % Inh” value is on record as 99.4%.

Take `CC1(C)CN(Cc2cccc(C(=O)Nc3ccc(-c4nc(C5CC5)n[nH]4)cc3)c2)CCS1(=O)=O` [Example 1-3, N-[4-(3-cyclopropyl-1H-1,2,4-triazol-5-yl)phenyl]-3-[(2,2-dimethyl-1,1-dioxo-1,4-thiazinan-4-yl)methyl]benzamide]: at mouse SMO^D473H, the IC50 was 63.1 nM and the “Mouse D473H % Inh” value was determined as 99.7%. For the same compound, on mouse SMO^W535L, the IC50 was 158 nM and the “Mouse W535L % Inh” value amounted to 62.6%. On mouse SMO^WT, the IC50 was 20 nM and the “Mouse WT % Inh” value was determined as 99.4%.

Consider `O=C(Nc1ccc(-c2nc(C3CC3)n[nH]2)cc1)c1cc(CN2CCS(=O)(=O)CC2)ccc1F` [Example 2-1, N-[4-(5-Cyclopropyl-1H-1,2,4-triazol-3-yl)phenyl]-5-[(1,1-dioxo-1,4-thiazinan-4-yl)methyl]-2-fluorobenzamide], for which, on mouse SMO^D473H, the IC50 is 200 nM and the “Mouse D473H % Inh” value worked out at 95.3%. Besides, on mouse SMO^W535L, the IC50 was 79.4 nM and the “Mouse W535L % Inh” value came out at 68.2%. In addition, at mouse SMO^WT, the IC50 was 15.8 nM and the “Mouse WT % Inh” value is 96.5%.

Take `O=C(Nc1ccc(-c2nc(C3CC3)n[nH]2)cc1)c1ccc(F)c(CN2CCS(=O)(=O)CC2)c1` [Example 2-3, N-[4-(5-Cyclopropyl-1H-1,2,4-triazol-3-yl)phenyl]-3-[(1,1-dioxo-1,4-thiazinan-4-yl)methyl]-4-fluorobenzamide]: on mouse SMO^D473H, the IC50 was 158 nM and the “Mouse D473H % Inh” value is on record as 93.9%. For the same compound, on mouse SMO^W535L, the IC50 is 79.4 nM and the “Mouse W535L % Inh” value came out at 76.5%. Moreover, at mouse SMO^WT, the IC50 is 20 nM and the “Mouse WT % Inh” value is reported as 94.4%.

As to `O=C(Nc1ccc(-c2nc(C3CC3)n[nH]2)cc1)c1ccc(Cl)c(CN2CCS(=O)(=O)CC2)c1` [Example 2-5, 4-Chloro-N-[4-(5-cyclopropyl-1H-1,2,4-triazol-3-yl)phenyl]-3-[(1,1-dioxo-1,4-thiazinan-4-yl)methyl]benzamide], on mouse SMO^D473H, the IC50 is 158 nM and the “Mouse D473H % Inh” value was determined as 94.4%. Further, on mouse SMO^W535L, the IC50 was 100 nM and the “Mouse W535L % Inh” value turned out to be 72.2%. For the same compound, at mouse SMO^WT, the IC50 was 15.8 nM and the “Mouse WT % Inh” value is reported as 95.5%.

In the case of `CC(C)c1n[nH]c(-c2ccc(NC(=O)c3cccc(CN4CCS(=O)(=O)CC4)c3)cc2)n1.Cl` [Example 3-1, 3-[(1,1-dioxo-1,4-thiazinan-4-yl)methyl]-N-[4-(3-propan-2-yl-1H-1,2,4-triazol-5-yl)phenyl]benzamide], at mouse SMO^D473H, the IC50 was 158 nM and the “Mouse D473H % Inh” value was 96.6%. Moreover, on mouse SMO^W535L, the IC50 was 200 nM and the “Mouse W535L % Inh” value came out at 77.1%. At mouse SMO^WT, the IC50 is 20 nM and the “Mouse WT % Inh” value is 99.1%.

In the case of `CC(C)(C)c1n[nH]c(-c2ccc(NC(=O)c3cccc(CN4CCS(=O)(=O)CC4)c3)cc2)n1` [Example 3-2, N-[4-(5-tert-Butyl-1H-1,2,4-triazol-3-yl)phenyl]-3-[(1,1-dioxo-1,4-thiazinan-4-yl)methyl]benzamide], at mouse SMO^D473H, the IC50 is 501 nM and the “Mouse D473H % Inh” value is listed as 91.0%. Besides, on mouse SMO^W535L, the IC50 is 100 nM and the “Mouse W535L % Inh” value was 41.6%. At mouse SMO^WT, the IC50 was 25.1 nM and the “Mouse WT % Inh” value was determined as 97.3%.

Turning to `Cl.O=C(Nc1ccc(-c2nc(C3CCC3)n[nH]2)cc1)c1cccc(CN2CCS(=O)(=O)CC2)c1` [Example 3-4, N-[4-(3-Cyclobutyl-1H-1,2,4-triazol-5-yl)phenyl]-3-[(1,1-dioxo-1,4-thiazinan-4-yl)methyl]benzamide], at mouse SMO^D473H, the IC50 was 200 nM and the “Mouse D473H % Inh” value is on record as 97.7%. At mouse SMO^W535L, the IC50 was 200 nM and the “Mouse W535L % Inh” value is recorded as 63.0%. Moreover, at mouse SMO^WT, the IC50 is 25.1 nM and the “Mouse WT % Inh” value is on record as 98.0%.

As for `O=C(Nc1ccc(-c2nc(C3CCCCC3)n[nH]2)cc1)c1cccc(CN2CCS(=O)(=O)CC2)c1` [Example 3-6, N-[4-(3-Cyclohexyl-1H-1,2,4-triazol-5-yl)phenyl]-3-[(1,1-dioxo-1,4-thiazinan-4-yl)methyl]benzamide], at mouse SMO^D473H, the IC50 is 200 nM and the “Mouse D473H % Inh” value is recorded as 98.4%. Moreover, on mouse SMO^W535L, the IC50 is 79.4 nM and the “Mouse W535L % Inh” value amounted to 51.7%. For the same compound, on mouse SMO^WT, the IC50 is 31.6 nM and the “Mouse WT % Inh” value is given as 98.4%.

For the compound `O=C(Nc1ccc(-c2nc(CC3CC3)n[nH]2)cc1)c1cccc(CN2CCS(=O)(=O)CC2)c1` [Example 3-7, N-[4-[3-(Cyclopropylmethyl)-1H-1,2,4-triazol-5-yl]phenyl]-3-[(1,1-dioxo-1,4-thiazinan-4-yl)methyl]benzamide], at mouse SMO^D473H, the IC50 was 200 nM and the “Mouse D473H % Inh” value stood at 97.3%. On mouse SMO^W535L, the IC50 was 200 nM and the “Mouse W535L % Inh” value came to 70.7%. Further, at mouse SMO^WT, the IC50 was 25.1 nM and the “Mouse WT % Inh” value was found to be 98.5%.

`O=C(Nc1ccc(-c2nc(C3CCN(c4ccccc4)C3)n[nH]2)cc1)c1cccc(CN2CCS(=O)(=O)CC2)c1` (stereo not shown) [Example 3-8, 3-[(1,1-Dioxo-1,4-thiazinan-4-yl)methyl]-N-[4-[3-(1-phenylpyrrolidin-3-yl)-1H-1,2,4-triazol-5-yl]phenyl]benzamide]: on mouse SMO^D473H, the IC50 is 158 nM and the “Mouse D473H % Inh” value turned out to be 98.0%. Also, at mouse SMO^W535L, the IC50 was 100 nM and the “Mouse W535L % Inh” value is given as 57.9%. Besides, at mouse SMO^WT, the IC50 is 20 nM and the “Mouse WT % Inh” value is given as 98.6%.

Turning to `O=C(Nc1ccc(-c2nc(C3CCCN(Cc4ccccc4)C3)n[nH]2)cc1)c1cccc(CN2CCS(=O)(=O)CC2)c1` (stereo not shown) [Example 3-9, N-[4-[3-(1-Benzylpiperidin-3-yl)-1H-1,2,4-triazol-5-yl]phenyl]-3-[(1,1-dioxo-1,4-thiazinan-4-yl)methyl]benzamide], at mouse SMO^D473H, the IC50 was 316 nM and the “Mouse D473H % Inh” value is 93.8%. Moreover, on mouse SMO^W535L, the IC50 is 63.1 nM and the “Mouse W535L % Inh” value is 63.2%. Also, at mouse SMO^WT, the IC50 is 31.6 nM and the “Mouse WT % Inh” value was found to be 95.1%.

Take `O=C(Nc1ccc(-c2nc(-c3cccc(F)c3)n[nH]2)cc1)c1cccc(CN2CCS(=O)(=O)CC2)c1` [Example 3-10, 3-[(1,1-Dioxo-1,4-thiazinan-4-yl)methyl]-N-[4-[3-(3-fluorophenyl)-1H-1,2,4-triazol-5-yl]phenyl]benzamide]: at mouse SMO^D473H, the IC50 was 251 nM and the “Mouse D473H % Inh” value was found to be 97.9%. On mouse SMO^W535L, the IC50 was 100 nM and the “Mouse W535L % Inh” value is given as 63.9%. Further, at mouse SMO^WT, the IC50 was 12.6 nM and the “Mouse WT % Inh” value came out at 99.1%.

Regarding `O=C(Nc1ccc(-c2nc(-c3cccc(Cl)c3)n[nH]2)cc1)c1cccc(CN2CCS(=O)(=O)CC2)c1` [Example 3-11, N-[4-[3-(3-Chlorophenyl)-1H-1,2,4-triazol-5-yl]phenyl]-3-[(1,1-dioxo-1,4-thiazinan-4-yl)methyl]benzamide], at mouse SMO^D473H, the IC50 is 100 nM and the “Mouse D473H % Inh” value is recorded as 98.5%. Besides, on mouse SMO^W535L, the IC50 is 501 nM and the “Mouse W535L % Inh” value turned out to be 62.5%. Moreover, at mouse SMO^WT, the IC50 is 10 nM and the “Mouse WT % Inh” value was determined as 98.4%.

Regarding `COc1ccc(-c2n[nH]c(-c3ccc(NC(=O)c4cccc(CN5CCS(=O)(=O)CC5)c4)cc3)n2)cc1` [Example 3-12, 3-[(1,1-Dioxo-1,4-thiazinan-4-yl)methyl]-N-[4-[5-(4-methoxyphenyl)-1H-1,2,4-triazol-3-yl]phenyl]benzamide], at mouse SMO^D473H, the IC50 is 200 nM and the “Mouse D473H % Inh” value is reported as 97.5%. At mouse SMO^W535L, the IC50 was 316 nM and the “Mouse W535L % Inh” value turned out to be 53.3%. For the same compound, at mouse SMO^WT, the IC50 is 12.6 nM and the “Mouse WT % Inh” value was 99.0%.

As to `Cc1oc(-c2ccc(NC(=O)c3ccc(Cl)c(CN4CCS(=O)(=O)CC4)c3)cn2)nc1Br` [Example 5-1, N-[6-(4-bromo-5-methyl-1,3-oxazol-2-yl)pyridin-3-yl]-4-chloro-3-[(1,1-dioxo-1,4-thiazinan-4-yl)methyl]benzamide], at mouse SMO^WT, the IC50 was 20 nM and the “Mouse WT % Inh” value came out at 99.3%.

`O=C(Nc1ccc(-c2cc(C3CC3)[nH]n2)nc1)c1ccc(Cl)c(CN2CCS(=O)(=O)CC2)c1` [Example 5-3, 4-Chloro-N-[6-(5-cyclopropyl-1H-pyrazol-3-yl)pyridin-3-yl]-3-[(1,1-dioxo-1,4-thiazinan-4-yl)methyl]benzamide]: on mouse SMO^WT, the IC50 was 63.1 nM and the “Mouse WT % Inh” value is recorded as 98.6%.
